# Test results taken from patent US10487129B2, “Stabilized insulinotropic peptides and methods of use” (Dana-Farber Cancer Institute, Inc., priority 2010, dated 2019).
# Positions of bridges follow the written chain, without caps; N, C: chain ends. Non-standard residues stand in square brackets, D forms with d. Residues, ends and D or L forms follow the SMILES beside them. No end group written: not given here. S5 = C=CCCC[C@](C)(N)C(=O)O; Nle = CCCC[C@H](N)C(=O)O
# What was measured:
# [1] = Circular dichroism thermal unfolding, 5-83° C.; assay type: physicochemical
# pepsin = pepsin (Sus scrofa, UniProt P00791); assay: in vitro; assay type: in vitro ADME; conditions: pH 2
# Procedure: In vitro proteolytic degradation of structured peptides was measured by LC/MS (Agilent 1200) using the following parameters: 20 μL injection, 0.6 mL flow rate, 15 min run time consisting of a gradient of water (0.1% formic acid) to 20-80% acetonitrile (0.075% formic acid) over 10 min, 4 min wash to revert to starting gradient conditions, and 0.5 min post-time. The DAD signal was set to 280 nm with an 8 nm bandwidth and MSD set to scan mode with one channel at (M+2H)/2, +1 mass units and the other at (M+3H)/3, +1 mass units. Integration of each MSD signal yielded areas under the curve of >10^8 counts. Reaction samples were composed of 5 μL peptide in DMSO (1 mM stock) and 195 μL of buffer consisting of 50 mM phosphate buffer pH 7.4 containing 2 mM CaCl2. Upon injection of the 0 hr time point sample, 2 μL of 50 ng/μL chymotrypsin (Sigma) was added and the amount of intact peptide quantitated by serial injection over time. An internal control of acetylated tryptophan carboxamide at a concentration of 100 μM was used to normalize each MSD data point. A plot of MSD area versus time yielded an exponential decay curve and half-lives were determined by nonlinear regression analysis using Prism software (GraphPad). The assay was also performed using trypsin and pepsin in their appropriate buffer conditions.
# chymotrypsin [2] = target: T1, chymotrypsin (Bos taurus, UniProt P00766); assay type: in vitro ADME; design: purchased Sigma; conditions: pH 7
# Excerpt: A major limitation of peptides as therapeutics is their susceptibility to rapid proteolytic degradation. […] One of the potential benefits of a covalent crosslinking strategy to enforce peptide α-helicity is shielding of the vulnerable amide bonds from proteolysis. Because proteases require that peptides adopt an extended conformation to hydrolyze amide bonds, the structural constraint afforded by the hydrocarbon staple can render crosslinked peptides protease-resistant.
# chymotrypsin [3] = target: T1, chymotrypsin; assay: Chymotrypsin proteolysis of gp41-derived HIV-1 fusion inhibitor peptides
# Procedure: In vitro proteolytic degradation of structured peptides was measured by LC/MS (Agilent 1200) using the following parameters: 20 μL injection, 0.6 mL flow rate, 15 min run time consisting of a gradient of water (0.1% formic acid) to 20-80% acetonitrile (0.075% formic acid) over 10 min, 4 min wash to revert to starting gradient conditions, and 0.5 min post-time. The DAD signal was set to 280 nm with an 8 nm bandwidth and MSD set to scan mode with one channel at (M+2H)/2, +1 mass units and the other at (M+3H)/3, +1 mass units. […] Reaction samples were composed of 5 μL peptide in DMSO (1 mM stock) and 195 μL of buffer consisting of 50 mM phosphate buffer pH 7.4 containing 2 mM CaCl2. Upon injection of the 0 hr time point sample, 2 μL of 50 ng/μL chymotrypsin (Sigma) was added and the amount of intact peptide quantitated by serial injection over time. An internal control of acetylated tryptophan carboxamide at a concentration of 100 μM was used to normalize each MSD data point. A plot of MSD area versus time yielded an exponential decay curve and half-lives were determined by nonlinear regression analysis using Prism software (GraphPad). The assay was also performed using trypsin and pepsin in their appropriate buffer conditions.
# [4] = Circular dichroism melting of gp41 peptides; assay type: physicochemical; conditions: circular dichroism melting profile
# Procedure: The alpha-helicity of stapled modified polypeptides was compared to their unmodified counterparts by circular dichroism. CD spectra were obtained on an Aviv spectropolarimeter at 20° C. using the following standard measurement parameters: wavelength, 190-260 nm; step resolution, 0.5 nm; speed, 20 nm/sec; accumulations, 10; response, 1 sec; bandwidth, 1 nm; path length, 0.1 cm. The alpha-helical content of each peptide was calculated by dividing the mean residue ellipticity [θ]222obs by the reported [θ]222obs for a model helical peptide (Forood, B., E. J. Feliciano, and K. P. Nambiar, PNAS, 1993. 90(3): p. 838-842; J. Martin Scholtz, Biopolymers, 1991. 31(13): p. 1463-1470; Lawless, M. K., et al., Biochemistry, 1996. 35(42): p. 13697-13708) or using, for example, the Aviv machine using CDNN software developed by Brohm in order to deduce five different secondary structure fractions (helix, parallel and antiparallel beta-sheet, beta-turn and random coil). Protein Engineering, 1992. 5(3); p. 191-195. Thermal stability is assessed by acquiring circular dichroism spectra across a broad temperature range and determining the melting temperatures for each constrained peptide.
# [5] = tested on: isolated pancreatic islets; assay: Glucose-stimulated insulin release (GSIS) from isolated pancreatic islets; assay type: cell-based, mouse; conditions: 10 nM peptide, 1.67 mM to 16.7 mM glucose, 1 hour at 37° C., insulin ELISA
# Procedure: Stock solutions of SAH-Ex and SAH-GLP peptides were generated by dissolving the lyophilized powders in deionized water at 100 μM. The following treatment solutions were made for batch GSIS assays: 1.67 mM glucose, 16.7 mM glucose, 1.67 mM glucose+10 nM peptide, 16.7 mM glucose+10 nM peptide all in 1×KRB buffer, 2 mM CaCl2, 0.05% BSA. Islets isolated from wild-type mouse pancreas were washed 3 times with KRB buffer and 5 islets per experimental tube were incubated in KRB buffer containing 1.67 mM glucose for 30 min at 37° C. Islets were then pelleted and the buffer replaced with the treatment solutions listed above. Each experimental condition was examined in replicates of n=8. After 1 hour incubation at 37° C., islets were pelleted and the supernatants collected for glucose stimulated insulin release measurement. The pellets are solubilized to assess intracellular insulin content to normalize for cell number. Insulin was measured by ELISA using mouse insulin as a standard (Insulin ELISA Kit, cat. 80-INSMS-E01, ALPCO). For the insulin ELISA plots, there is a small increase in the amount of insulin released in response to escalation of the glucose dose from 1.67 mM to 16.7 mM.
# Chain of pepsin (P00791 60-385): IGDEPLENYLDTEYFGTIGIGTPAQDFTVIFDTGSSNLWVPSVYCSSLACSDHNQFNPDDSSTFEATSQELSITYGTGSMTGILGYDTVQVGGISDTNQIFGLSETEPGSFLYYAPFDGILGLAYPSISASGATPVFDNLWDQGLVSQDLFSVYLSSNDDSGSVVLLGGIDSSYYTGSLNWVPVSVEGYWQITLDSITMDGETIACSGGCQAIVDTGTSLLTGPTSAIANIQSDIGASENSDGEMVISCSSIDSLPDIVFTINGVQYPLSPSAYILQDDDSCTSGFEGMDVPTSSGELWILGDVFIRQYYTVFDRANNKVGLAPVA
compound,measurement,setting,value
"CC[C@H](C)[C@H](NC(=O)[C@H](Cc1ccccc1)NC(=O)[C@H](CC(C)C)NC(=O)[C@H](CCCNC(=N)N)NC(=O)[C@@H](NC(=O)[C@H](C)NC(=O)[C@H](CCC(=O)O)NC(=O)[C@H](CCC(=O)O)NC(=O)[C@H](CCC(=O)O)NC(=O)[C@]1(C)CCCC=CCCC[C@](C)(NC(=O)[C@H](CC(=O)O)NC(=O)[C@H](CO)NC(=O)[C@@H](NC(=O)[C@H](Cc2ccccc2)NC(=O)[C@@H](NC(=O)CNC(=O)[C@H](CCC(=O)O)NC(=O)CNC(=O)[C@@H](N)Cc2c[nH]cn2)[C@@H](C)O)[C@@H](C)O)C(=O)N[C@@H](CO)C(=O)N[C@@H](CCCCN)C(=O)N[C@@H](CCC(N)=O)C(=O)N1)C(C)C)C(=O)N[C@@]1(C)CCCC=CCCC[C@@](C)(C(=O)NCC(=O)NCC(=O)N2CCC[C@H]2C(=O)N[C@@H](CO)C(=O)N[C@@H](CO)C(=O)NCC(=O)N[C@@H](C)C(=O)N2CCC[C@H]2C(=O)N2CCC[C@H]2C(=O)N2CCC[C@H]2C(=O)N[C@@H](CO)C(N)=O)NC(=O)[C@H](CCCCN)NC(=O)[C@H](CC(C)C)NC(=O)[C@H](Cc2c[nH]c3ccccc23)NC1=O (single isomer, unassigned) [SAH-Ex(A, B)]",slope of temperature melt line,[1],flatter sloped line
same,enhancement in pepsin resistance compared to the template peptide,pepsin,13 fold
same,half-life at 25 μM,pepsin,2.87 h
same,enhancement in chymotrypsin resistance compared to the singly stapled peptides,chymotrypsin [2],up to 4 fold
same,enhancement in chymotrypsin resistance compared to the template peptide,chymotrypsin [2],8 fold
CCCC[C@H](NC(=O)[C@H](Cc1c[nH]c2ccccc12)NC(=O)[C@@H](NC(=O)[C@@H](N)CCCC)[C@@H](C)O)C(=O)N[C@@H](CCC(=O)O)C(=O)N[C@@H](Cc1c[nH]c2ccccc12)C(=O)N[C@@H](CC(=O)O)C(=O)N[C@@H](CCCNC(=N)N)C(=O)N[C@@H](CCC(=O)O)C(=O)N[C@H](C(=O)N[C@@H](CC(N)=O)C(=O)N[C@@H](CC(N)=O)C(=O)N[C@@H](Cc1ccc(O)cc1)C(=O)N[C@H](C(=O)N[C@@H](CO)C(=O)N[C@@H](CC(C)C)C(=O)N[C@H](C(=O)N[C@@H](Cc1c[nH]cn1)C(=O)N[C@@H](CO)C(=O)N[C@@H](CC(C)C)C(=O)N[C@H](C(=O)N[C@@H](CCC(=O)O)C(=O)N[C@@H](CCC(=O)O)C(=O)N[C@@H](CO)C(=O)N[C@@H](CCC(N)=O)C(=O)N[C@@H](CC(N)=O)C(=O)N[C@@H](CCC(N)=O)C(=O)N[C@@]1(C)CCCC=CCCC[C@@](C)(C(=O)N[C@@H](CCC(N)=O)C(=O)N[C@@H](CCC(=O)O)C(=O)N[C@@H](CC(C)C)C(=O)N[C@@H](CC(C)C)C(=O)N[C@@H](CCC(=O)O)C(N)=O)NC(=O)[C@H](CC(N)=O)NC(=O)[C@H](CCCCN)NC(=O)[C@H](CCC(=O)O)NC1=O)[C@@H](C)CC)[C@@H](C)CC)[C@@H](C)O)[C@@H](C)CC [SAH-gp41(626-662)(B)] (H-[Nle]TW[Nle]EWDREINNYTSLIHSLIEESQNQ[S5]EKN[S5]QELLE-NH2; staple 28-32; N-terminus assumed),half-life,chymotrypsin [3],1.28 h
"C=CCCC[C@](C)(NC(=O)[C@H](CC(N)=O)NC(=O)[C@H](CCCCN)NC(=O)[C@H](CCC(=O)O)NC(=O)[C@](C)(CCCC=C)NC(=O)[C@H](CCC(N)=O)NC(=O)[C@H](CC(N)=O)NC(=O)[C@H](CCC(N)=O)NC(=O)[C@H](CO)NC(=O)[C@H](CCC(=O)O)NC(=O)[C@H](CCC(=O)O)NC(=O)[C@@H](NC(=O)[C@H](CC(C)C)NC(=O)[C@H](CO)NC(=O)[C@H](Cc1c[nH]cn1)NC(=O)[C@@H](NC(=O)[C@H](CC(C)C)NC(=O)[C@H](CO)NC(=O)[C@@H](NC(=O)[C@H](Cc1ccc(O)cc1)NC(=O)[C@H](CC(N)=O)NC(=O)[C@H](CC(N)=O)NC(=O)[C@@H](NC(=O)[C@H](CCC(=O)O)NC(=O)[C@](C)(CCCC=C)NC(=O)[C@H](CC(=O)O)NC(=O)[C@H](Cc1c[nH]c2ccccc12)NC(=O)[C@H](CCC(=O)O)NC(=O)[C@](C)(CCCC=C)NC(=O)[C@H](Cc1c[nH]c2ccccc12)NC(=O)[C@@H](NC(=O)[C@@H](N)CCCC)[C@@H](C)O)[C@@H](C)CC)[C@@H](C)O)[C@@H](C)CC)[C@@H](C)CC)C(=O)N[C@@H](CCC(N)=O)C(=O)N[C@@H](CCC(=O)O)C(=O)N[C@@H](CC(C)C)C(=O)N[C@@H](CC(C)C)C(=O)N[C@@H](CCC(=O)O)C(N)=O [UAH-gp41(626-662)(A,B)] (H-[Nle]TW[S5]EWD[S5]EINNYTSLIHSLIEESQNQ[S5]EKN[S5]QELLE-NH2; N-terminus assumed)",half-life,chymotrypsin [3],0.6 h
same,"protection from chymotrypsin proteolysis, result in words",chymotrypsin [3],does not confer significant protection
same,Tm,[4],27 °C
"GLP1: Glucagon-like Peptide-1, insulin secretagogue (HAEGTFTSDVSSYLEGQAAKEFIAWLVKGR; ends and bridges not checked; UniProt P01275 98-127, looked up)",glucose-stimulated insulin release (GSIS),[5],substantial increase in GSIS
